Test results taken from paper PMC5218480 (PLoS ONE, 2017).

Test system: MV-4-11 cells
Assay: Gene expression microarray analysis (Affymetrix PrimeView) and GSEA
Assay type: cell-based, human
Parameters: RFU PODN (11730768_x_at) / Fold change /veh PODN (11730768_x_at) / RFU LINC00158 (11744669_a_at) / Fold change /veh LINC00158 (11744669_a_at) / RFU DUSP10 (11751237_a_at) / Fold change /veh DUSP10 (11751237_a_at) / RFU ID3 (11757404_x_at) / Fold change /veh ID3 (11757404_x_at) / RFU PLEKHG5 (11737974_s_at) / Fold change /veh PLEKHG5 (11737974_s_at) / RFU LRRC4B (11730491_at) / Fold change /veh LRRC4B (11730491_at) / RFU GIMAP4 (11747438_a_at) / Fold change /veh GIMAP4 (11747438_a_at) / RFU KRT8 (11758183_x_at) / Fold change /veh KRT8 (11758183_x_at) / RFU CNN1 (11734310_a_at) / Fold change /veh CNN1 (11734310_a_at) / RFU VPS37D (11726825_at) / Fold change /veh VPS37D (11726825_at) / RFU C10orf10 (11716522_x_at) / Fold change /veh C10orf10 (11716522_x_at) / RFU KIR2DL2 /// KIR2DL4 /// KIR2DL5A /// KIR2DL5B /// KIR2DS1 /// KIR2DS2 /// KIR2DS3 /// KIR2DS4 /// KIR3DL3 /// KIR3DL3 /// KIR3DS1 (11738374_at) / Fold change /veh KIR2DL2 /// KIR2DL4 /// KIR2DL5A /// KIR2DL5B /// KIR2DS1 /// KIR2DS2 /// KIR2DS3 /// KIR2DS4 /// KIR3DL3 /// KIR3DL3 /// KIR3DS1 (11738374_at) / RFU C1QL1 (11718748_at) / Fold change /veh C1QL1 (11718748_at) / RFU TMPRSS4 (11747572_a_at) / Fold change /veh TMPRSS4 (11747572_a_at) / RFU HAMP (11756126_x_at) / Fold change /veh HAMP (11756126_x_at) / RFU RNFT2 (11725882_a_at) / Fold change /veh RNFT2 (11725882_a_at) / RFU NR4A2 (11747474_a_at) / Fold change /veh NR4A2 (11747474_a_at) / RFU ABCC12 (11746883_a_at) / Fold change /veh ABCC12 (11746883_a_at) / RFU TMEM136 (11760407_x_at) / Fold change /veh TMEM136 (11760407_x_at) / RFU CLDN22 /// WWC2 (11732394_at) / Fold change /veh CLDN22 /// WWC2 (11732394_at) / RFU HLA-DPB1 (11760878_x_at) / Fold change /veh HLA-DPB1 (11760878_x_at) / RFU SPINT1 (11716480_a_at) / Fold change /veh SPINT1 (11716480_a_at) / RFU GAP43 (11754022_s_at) / Fold change /veh GAP43 (11754022_s_at) / RFU A4GNT (11735810_at) / Fold change /veh A4GNT (11735810_at) / RFU PRB3 (11715151_x_at) / Fold change /veh PRB3 (11715151_x_at) / RFU TUBB4B (11761932_at) / Fold change /veh TUBB4B (11761932_at) / RFU CAPN14 (11732068_a_at) / Fold change /veh CAPN14 (11732068_a_at) / RFU TMCC2 (11721928_a_at) / Fold change /veh TMCC2 (11721928_a_at) / RFU IRGQ (11745062_a_at) / Fold change /veh IRGQ (11745062_a_at) / RFU FAM174B (11720279_a_at) / Fold change /veh FAM174B (11720279_a_at) / RFU TMPRSS4 (11748680_a_at) / Fold change /veh TMPRSS4 (11748680_a_at) / RFU FAM212B (11763350_a_at) / Fold change /veh FAM212B (11763350_a_at) / RFU PLEKHG5 (11743358_a_at) / Fold change /veh PLEKHG5 (11743358_a_at) / RFU ZSCAN30 (11745921_a_at) / Fold change /veh ZSCAN30 (11745921_a_at) / RFU CMKLR1 (11741424_a_at) / Fold change /veh CMKLR1 (11741424_a_at) / RFU LOC101060620 /// MAPK8IP1 (11723275_at) / Fold change /veh LOC101060620 /// MAPK8IP1 (11723275_at) / RFU SPTSSB (11747773_x_at) / Fold change /veh SPTSSB (11747773_x_at) / RFU PRSS12 (11739890_at) / Fold change /veh PRSS12 (11739890_at) / RFU BIN1 (11741810_x_at) / Fold change /veh BIN1 (11741810_x_at) / RFU WNT11 (11732464_a_at) / Fold change /veh WNT11 (11732464_a_at) / RFU C10orf10 (11716521_a_at) / Fold change /veh C10orf10 (11716521_a_at) / RFU C5orf56 (11738089_at) / Fold change /veh C5orf56 (11738089_at) / RFU CYB561 (11721691_x_at) / Fold change /veh CYB561 (11721691_x_at) / RFU ANKRD19P (11752326_a_at) / Fold change /veh ANKRD19P (11752326_a_at) / RFU OR2T12 /// OR2T33 /// OR2T8 (11738714_s_at) / Fold change /veh OR2T12 /// OR2T33 /// OR2T8 (11738714_s_at) / RFU VCAN (11748164_a_at) / Fold change /veh VCAN (11748164_a_at) / RFU JSRP1 (11732532_at) / Fold change /veh JSRP1 (11732532_at) / RFU KRTAP10-11 (11738290_x_at) / Fold change /veh KRTAP10-11 (11738290_x_at) / RFU MYO3A (11730013_a_at) / Fold change /veh MYO3A (11730013_a_at) / RFU EBF3 (11725865_a_at) / Fold change /veh EBF3 (11725865_a_at) / RFU CAMK2N1 (11719241_x_at) / Fold change /veh CAMK2N1 (11719241_x_at) / RFU C5orf56 (11738088_a_at) / Fold change /veh C5orf56 (11738088_a_at) / RFU OLFML3 (11715873_a_at) / Fold change /veh OLFML3 (11715873_a_at) / RFU LOC100653217 /// NTM (11731650_a_at) / Fold change /veh LOC100653217 /// NTM (11731650_a_at) / RFU MAPK11 (11762145_a_at) / Fold change /veh MAPK11 (11762145_a_at) / RFU FIZ1 (11724087_x_at) / Fold change /veh FIZ1 (11724087_x_at) / RFU OASL (11726364_x_at) / Fold change /veh OASL (11726364_x_at) / RFU SOX15 (11748057_x_at) / Fold change /veh SOX15 (11748057_x_at) / RFU CD79A (11719716_a_at) / Fold change /veh CD79A (11719716_a_at) / RFU HIST1H1D (11736915_at) / Fold change /veh HIST1H1D (11736915_at) / RFU CASKIN2 (11723855_a_at) / Fold change /veh CASKIN2 (11723855_a_at) / RFU LOC730098 (11760151_x_at) / Fold change /veh LOC730098 (11760151_x_at) / RFU OR4N2 (11742367_at) / Fold change /veh OR4N2 (11742367_at) / RFU PRRT2 (11749266_a_at) / Fold change /veh PRRT2 (11749266_a_at) / RFU SNX32 (11753110_a_at) / Fold change /veh SNX32 (11753110_a_at) / RFU CDHR5 (11726645_a_at) / Fold change /veh CDHR5 (11726645_a_at) / RFU RCAN1 (11760418_a_at) / Fold change /veh RCAN1 (11760418_a_at) / RFU FAM167A (11723789_a_at) / Fold change /veh FAM167A (11723789_a_at) / RFU FAM26E (11764081_at) / Fold change /veh FAM26E (11764081_at) / RFU ISYNA1 (11749810_s_at) / Fold change /veh ISYNA1 (11749810_s_at) / RFU ACY1 (11761880_at) / Fold change /veh ACY1 (11761880_at) / RFU 11764098_at / Fold change /veh 11764098_at / RFU SAMD14 (11745864_x_at) / Fold change /veh SAMD14 (11745864_x_at) / RFU NPB (11741838_a_at) / Fold change /veh NPB (11741838_a_at) / RFU TMPRSS6 (11731388_a_at) / Fold change /veh TMPRSS6 (11731388_a_at) / RFU KRTAP10-2 (11738614_at) / Fold change /veh KRTAP10-2 (11738614_at) / RFU ARHGAP8 /// PRR5-ARHGAP8 (11727945_x_at) / Fold change /veh ARHGAP8 /// PRR5-ARHGAP8 (11727945_x_at) / RFU KRTAP5-7 /// NADSYN1 (11734609_at) / Fold change /veh KRTAP5-7 /// NADSYN1 (11734609_at) / RFU RASL12 (11751679_a_at) / Fold change /veh RASL12 (11751679_a_at) / RFU CDKN2B (11736163_a_at) / Fold change /veh CDKN2B (11736163_a_at) / RFU PRF1 (11729649_at) / Fold change /veh PRF1 (11729649_at) / RFU, ZNF638 /// ZNF638-IT1 / Fold change vs veh, ZNF638 /// ZNF638-IT1 / RFU, PANK3 / Fold change vs veh, PANK3 / RFU, SH3YL1 / Fold change vs veh, SH3YL1 / RFU, ZEB2 / Fold change vs veh, ZEB2 / RFU, NRIP1 / Fold change vs veh, NRIP1 / RFU, PTTG1IP / Fold change vs veh, PTTG1IP / RFU, CAPN2 / Fold change vs veh, CAPN2 / RFU, MED14 / Fold change vs veh, MED14 / RFU, SNORA58 / Fold change vs veh, SNORA58 / RFU, C1orf63 / Fold change vs veh, C1orf63 / RFU, LRRFIP1 / Fold change vs veh, LRRFIP1 / RFU, NDUFAF7 / Fold change vs veh, NDUFAF7 / RFU, SLC12A2 / Fold change vs veh, SLC12A2 / RFU, IBTK / Fold change vs veh, IBTK / RFU, ESF1 / Fold change vs veh, ESF1 / Fold change vs veh, TMEM50B / RFU, TAOK1 / Fold change vs veh, TAOK1 / RFU, ACBD3 / Fold change vs veh, ACBD3 / RFU, TMA16 / Fold change vs veh, TMA16 / RFU, RWDD3 / Fold change vs veh, RWDD3 / RFU, BCAT1 / Fold change vs veh, BCAT1 / RFU, EDEM3 / Fold change vs veh, EDEM3 / RFU, TMEM33 / Fold change vs veh, TMEM33 / RFU, WDR75 / Fold change vs veh, WDR75 / RFU, AHCTF1 / Fold change vs veh, AHCTF1 / RFU, TFRC / Fold change vs veh, TFRC / RFU, ZDHHC17 / Fold change vs veh, ZDHHC17 / RFU, NOM1 / Fold change vs veh, NOM1 / RFU, ARL8B / Fold change vs veh, ARL8B / RFU, ZBTB11 / Fold change vs veh, ZBTB11 / RFU, TAMM41 / Fold change vs veh, TAMM41 / RFU, KIAA1704 /// LOC100996395 / Fold change vs veh, KIAA1704 /// LOC100996395 / RFU, ING1 / Fold change vs veh, ING1 / RFU, TRMT61B / Fold change vs veh, TRMT61B / RFU, FUBP3 / Fold change vs veh, FUBP3 / RFU, TP53 / Fold change vs veh, TP53 / RFU, TNKS2 / Fold change vs veh, TNKS2 / RFU, ZFP14 / Fold change vs veh, ZFP14 / RFU, ACTR2 / Fold change vs veh, ACTR2 / RFU, PPP3R1 / Fold change vs veh, PPP3R1 / RFU, PIK3R1 / Fold change vs veh, PIK3R1 / RFU, HNRNPA1 / Fold change vs veh, HNRNPA1 / RFU, RNF170 / Fold change vs veh, RNF170 / RFU, ZNF28 / Fold change vs veh, ZNF28 / RFU, RNGTT / Fold change vs veh, RNGTT / RFU, OGT / Fold change vs veh, OGT / RFU, BRD1 / Fold change vs veh, BRD1 / RFU, MARS / Fold change vs veh, MARS / RFU, ZNF655 / Fold change vs veh, ZNF655 / RFU, FAHD1 / Fold change vs veh, FAHD1 / RFU, BDP1 / Fold change vs veh, BDP1 / RFU, LRRCC1 / Fold change vs veh, LRRCC1 / RFU, ARID1A / Fold change vs veh, ARID1A / RFU, ZNF146 / Fold change vs veh, ZNF146 / RFU, ZNF330 / Fold change vs veh, ZNF330 / RFU, GPN3 / Fold change vs veh, GPN3 / RFU, C9orf123 / Fold change vs veh, C9orf123 / RFU, N4BP2L2 / Fold change vs veh, N4BP2L2 / RFU, ARFIP1 / Fold change vs veh, ARFIP1 / RFU, FAM179B / Fold change vs veh, FAM179B / RFU, BCL10 / Fold change vs veh, BCL10 / RFU, UHRF1BP1L / Fold change vs veh, UHRF1BP1L / RFU, BET1 / Fold change vs veh, BET1 / RFU, CNOT2 / Fold change vs veh, CNOT2 / RFU, ZNF268 / Fold change vs veh, ZNF268 / Fold change vs veh, ZNF507 / RFU, DGCR2 / Fold change vs veh, DGCR2 / RFU, WDSUB1 / Fold change vs veh, WDSUB1 / Fold change vs veh, HSP90B1 /// MIR3652 / RFU, ADSS / Fold change vs veh, ADSS / RFU, GK / Fold change vs veh, GK / RFU, ZNF148 / Fold change vs veh, ZNF148 / RFU, TAF9 / Fold change vs veh, TAF9 / RFU, SLC1A5 / Fold change vs veh, SLC1A5 / RFU, SLMO2 / Fold change vs veh, SLMO2 / RFU, ABCC4 / Fold change vs veh, ABCC4 / RFU, LOC101060439 /// RAP1B / Fold change vs veh, LOC101060439 /// RAP1B / RFU, RFX7 / Fold change vs veh, RFX7 / RFU, GTPBP10 / Fold change vs veh, GTPBP10 / RFU, CNEP1R1 / Fold change vs veh, CNEP1R1 / RFU, BIVM-ERCC5 /// ERCC5 / Fold change vs veh, BIVM-ERCC5 /// ERCC5 / RFU, ILF3 / Fold change vs veh, ILF3 / RFU 11762660_at / Fold change /veh 11762660_at / RFU VCAN (11757783_s_at) / Fold change /veh VCAN (11757783_s_at) / RFU DDX43 (11728927_at) / Fold change /veh DDX43 (11728927_at) / RFU KRT8 (11758188_x_at) / Fold change /veh KRT8 (11758188_x_at) / RFU NKD1 (11759106_at) / Fold change /veh NKD1 (11759106_at) / RFU SRD5A1 (11742802_a_at) / Fold change /veh SRD5A1 (11742802_a_at) / RFU TPSAB1 /// TPSB2 (11721975_s_at) / Fold change /veh TPSAB1 /// TPSB2 (11721975_s_at) / RFU GSTM3 (11746129_a_at) / Fold change /veh GSTM3 (11746129_a_at) / RFU IL23R (11737362_x_at) / Fold change /veh IL23R (11737362_x_at) / RFU TMEM51 (11727254_a_at) / Fold change /veh TMEM51 (11727254_a_at) / RFU PIWIL2 (11732686_x_at) / Fold change /veh PIWIL2 (11732686_x_at) / RFU ORM1 (11744905_x_at) / Fold change /veh ORM1 (11744905_x_at) / RFU CCDC152 (11743942_at) / Fold change /veh CCDC152 (11743942_at) / RFU ECM1 (11717891_a_at) / Fold change /veh ECM1 (11717891_a_at) / RFU IL23R (11748794_a_at) / Fold change /veh IL23R (11748794_a_at) / RFU TNFAIP8L3 (11732012_x_at) / Fold change /veh TNFAIP8L3 (11732012_x_at) / RFU MBOAT4 (11741988_at) / Fold change /veh MBOAT4 (11741988_at) / RFU 11764193_at / Fold change /veh 11764193_at / RFU TMEM53 (11763286_at) / Fold change /veh TMEM53 (11763286_at) / RFU MAGEB2 (11727129_at) / Fold change /veh MAGEB2 (11727129_at) / RFU TMEM200A (11744735_a_at) / Fold change /veh TMEM200A (11744735_a_at) / RFU CCDC152 (11751479_a_at) / Fold change /veh CCDC152 (11751479_a_at) / RFU FAM211A (11726209_a_at) / Fold change /veh FAM211A (11726209_a_at) / RFU RGS16 (11746705_a_at) / Fold change /veh RGS16 (11746705_a_at) / RFU VCAN (11755009_s_at) / Fold change /veh VCAN (11755009_s_at) / RFU RHOB (11743442_s_at) / Fold change /veh RHOB (11743442_s_at) / RFU RGS16 (11720943_a_at) / Fold change /veh RGS16 (11720943_a_at) / RFU RGS16 (11720944_at) / Fold change /veh RGS16 (11720944_at) / RFU, VPS4B / Fold change vs veh, VPS4B / RFU, CREB1 / Fold change vs veh, CREB1 / RFU, DNAJC13 / Fold change vs veh, DNAJC13 / RFU, GNAQ / Fold change vs veh, GNAQ / RFU, CDK5R1 / Fold change vs veh, CDK5R1 / RFU, ZRANB3 / Fold change vs veh, ZRANB3 / RFU, CUL4A / Fold change vs veh, CUL4A / RFU, CCNY / Fold change vs veh, CCNY / RFU, UFL1 / Fold change vs veh, UFL1 / RFU, COG3 / Fold change vs veh, COG3 / RFU, DIAPH2 / Fold change vs veh, DIAPH2 / RFU, SKA2 / Fold change vs veh, SKA2 / RFU, AFF3 / Fold change vs veh, AFF3 / RFU, LMF1 / Fold change vs veh, LMF1 / RFU, IPO11 / Fold change vs veh, IPO11 / RFU, DFFB / Fold change vs veh, DFFB / RFU, FOXP1 / Fold change vs veh, FOXP1 / RFU, CARD8 / Fold change vs veh, CARD8 / RFU, STRN3 / Fold change vs veh, STRN3 / RFU, ADK / Fold change vs veh, ADK / RFU, RASSF2 / Fold change vs veh, RASSF2 / RFU, WIPF1 / Fold change vs veh, WIPF1 / RFU, LARP1B / Fold change vs veh, LARP1B / RFU, RASA1 / Fold change vs veh, RASA1 / RFU, RB1 / Fold change vs veh, RB1 / RFU, PPFIA1 / Fold change vs veh, PPFIA1 / RFU, MAT2A / Fold change vs veh, MAT2A / RFU, CCT5 / Fold change vs veh, CCT5 / RFU, WDR92 / Fold change vs veh, WDR92 / RFU, CUX1 / Fold change vs veh, CUX1 / RFU, TTC7A / Fold change vs veh, TTC7A / RFU, TMEM135 / Fold change vs veh, TMEM135 / RFU, DEPTOR / Fold change vs veh, DEPTOR / RFU, CPM / Fold change vs veh, CPM / RFU, DNAJB6 / Fold change vs veh, DNAJB6 / RFU, CACNA2D3 / Fold change vs veh, CACNA2D3 / RFU, DTX4 / Fold change vs veh, DTX4 / RFU, TFCP2 / Fold change vs veh, TFCP2 / RFU, GMCL1 /// GMCL1P1 / Fold change vs veh, GMCL1 /// GMCL1P1 / RFU, AEBP2 / Fold change vs veh, AEBP2 / RFU, SNHG1 /// SNORD22 /// SNORD25 /// SNORD26 /// SNORD27 /// SNORD28 /// SNORD29 /// SNORD31 / Fold change vs veh, SNHG1 /// SNORD22 /// SNORD25 /// SNORD26 /// SNORD27 /// SNORD28 /// SNORD29 /// SNORD31 / Fold change (Aza/veh), C12orf56 (ProbeSet 11735607_a_at) / Fold change (ACY-1035/veh), C12orf56 (ProbeSet 11735607_a_at) / Fold change (Aza/veh), FGFR1OP (ProbeSet 11751329_s_at) / Fold change (ACY-1035/veh), FGFR1OP (ProbeSet 11751329_s_at) / Fold change (Aza/veh), VPS36 (ProbeSet 11739960_a_at) / Fold change (ACY-1035/veh), VPS36 (ProbeSet 11739960_a_at) / RFU SYPL1 (11715823_x_at) / Fold change /veh SYPL1 (11715823_x_at) / RFU IGFBP7 (11715501_s_at) / Fold change /veh IGFBP7 (11715501_s_at) / RFU REEP3 (11722064_at) / Fold change /veh REEP3 (11722064_at) / RFU IGLL1 (11728026_x_at) / Fold change /veh IGLL1 (11728026_x_at): dose or concentration left out as unconfirmed
Conditions: MV-4-11 cells, 48 hours

## Nc1ncn([C@@H]2O[C@H](CO)[C@@H](O)[C@H]2O)c(=O)n1 [azacitidine]
  RFU ORM1 (11744905_x_at): 10.48 RFU
